Measurements as given in paper PMC10052652 (Molecules, 2023).
Read-outs that look alike come from different tables or passages of the source.

What was measured:
SKOV-3 cells = assay: Cytotoxic activity, MTT assay, SKOV-3; type: cell-based, human
xanthine oxidase (XOD) [1] = target: T1, xanthine oxidase (XOD) (Homo sapiens, UniProt P47989); assay: biochemical; conditions: read-out: Anti XOD IC50
Description: Anti-xanthine oxidase activity was assayed spectrophotometrically under aerobic conditions. First, 50 µL (50 µg/mL) of samples were added to 60 µL of phosphate buffer (pH 7.5) and 30 µL of xanthine oxidase enzyme solution (0.01 units/mL in phosphate buffer; pH 7.5). After pre-incubation at 25 °C for 15 min, the reaction was initiated by the addition of 60 µL of xanthine substrate solution (prepared in the same buffer). The assay mixture was incubated at 25 °C for 5 min. […] The assay was performed in triplicate. […] Tests were carried out in triplicate.

α-amylase = target: T2, α-amylase (Homo sapiens, UniProt P04746); assay: Anti-α-amylase activity (starch/DNS); conditions: for Anti α-Amylase %: at 100 µM
T2 sequence (P04746 16-511): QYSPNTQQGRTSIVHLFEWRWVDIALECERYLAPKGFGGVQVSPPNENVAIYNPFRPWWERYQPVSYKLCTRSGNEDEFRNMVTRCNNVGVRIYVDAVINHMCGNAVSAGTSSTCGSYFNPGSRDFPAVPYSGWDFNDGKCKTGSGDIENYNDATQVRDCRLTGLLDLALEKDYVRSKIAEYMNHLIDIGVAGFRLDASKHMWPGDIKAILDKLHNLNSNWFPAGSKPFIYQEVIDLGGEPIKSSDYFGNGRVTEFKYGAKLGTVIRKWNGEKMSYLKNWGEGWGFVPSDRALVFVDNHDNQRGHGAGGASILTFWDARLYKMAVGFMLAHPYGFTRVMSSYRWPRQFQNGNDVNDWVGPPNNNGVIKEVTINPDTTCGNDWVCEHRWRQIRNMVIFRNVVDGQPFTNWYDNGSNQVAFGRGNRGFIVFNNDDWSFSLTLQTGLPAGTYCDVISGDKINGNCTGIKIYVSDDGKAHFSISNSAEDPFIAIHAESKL
Description: The α-amylase inhibitory activity (%) value was defined as the percentage decrease in the maltose production rate over the control. […] After 15 min, this mixture was removed from the water bath and diluted with 900 µL of distilled water. The anti-α-amylase activity was determined by measuring the absorbance at 540 nm. Blank incubations were determined as the absorbance produced by samples where the enzyme was replaced with a buffer solution. […] The IC50 values were calculated from the mean values of the percentage of α--amylase inhibition data, determined in triplicate.

[2] = target: T3, acetylcholinesterase (AChE) (Homo sapiens, UniProt P22303); type: biochemical; conditions: at 100 µM
T3 sequence (P22303 32-614, species assumed): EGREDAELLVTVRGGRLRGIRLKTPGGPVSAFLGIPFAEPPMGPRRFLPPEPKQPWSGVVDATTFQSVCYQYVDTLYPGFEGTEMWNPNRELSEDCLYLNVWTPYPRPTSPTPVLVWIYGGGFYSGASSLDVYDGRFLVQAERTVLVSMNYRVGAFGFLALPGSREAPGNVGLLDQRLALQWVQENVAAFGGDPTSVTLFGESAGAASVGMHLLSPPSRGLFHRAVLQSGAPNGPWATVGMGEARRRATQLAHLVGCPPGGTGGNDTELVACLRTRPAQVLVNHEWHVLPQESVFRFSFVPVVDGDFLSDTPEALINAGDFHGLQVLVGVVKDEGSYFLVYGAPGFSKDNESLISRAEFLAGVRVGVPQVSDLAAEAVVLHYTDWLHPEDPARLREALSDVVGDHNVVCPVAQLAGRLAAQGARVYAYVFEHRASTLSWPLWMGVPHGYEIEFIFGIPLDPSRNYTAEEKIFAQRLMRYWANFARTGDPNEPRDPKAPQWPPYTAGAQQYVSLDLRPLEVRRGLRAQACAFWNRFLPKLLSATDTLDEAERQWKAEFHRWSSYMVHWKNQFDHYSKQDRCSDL

[3] = target: T4, superoxide dismutase (SOD) (Homo sapiens, UniProt P00441); type: biochemical; conditions: at 100 µM
T4 sequence (P00441 whole entry): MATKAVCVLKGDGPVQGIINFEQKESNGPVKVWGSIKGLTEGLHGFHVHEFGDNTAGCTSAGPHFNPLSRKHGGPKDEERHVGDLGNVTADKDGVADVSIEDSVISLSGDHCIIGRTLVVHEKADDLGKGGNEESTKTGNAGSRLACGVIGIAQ

HCT116 cells = assay: Cytotoxic activity, MTT assay, HCT116; type: cell-based, human; conditions: Homo sapiens, HCT-116, 72 h, read-out: IC50 HCT116, MTT, 72 h
Description: (§1) The cancer cell lines used in this study were HCT116 (colorectal carcinoma), IGROV1 (ovarian cancer), OVCAR3 (ovarian cancer), and MCF7 (mammary gland/breast cancer). […] Cell lines were maintained in culture and were incubated at 37 °C in an incubator with 5% CO2 in a humidified atmosphere. All tests were established at 80% of confluence, and viability was estimated with a trypan blue exclusion assay.
(§2) The cytotoxic activities of molecules against cancer cell lines were evaluated using an MTT assay. The MTT colorimetric assay was performed using 96-well plates. Cells were seeded in a 96-well plate, at a concentration of 10 × 10^3 cells/well for HCT116 and 12 × 10^3 cells/well for MCF7, IGROV1, and OVAR. Adherent cells were dispatched and incubated at 37 °C overnight in a 5% CO2-enriched atmosphere. […] After that, the medium was removed, and cells were treated with 50 µL of 3-(4,5-dimethylthazolk-2-yl)-2,5-diphenyl tetrazolium bromide (MTT) solution (3 mg/mL in PBS) at 37 °C for 20 to 40 min. To dissolve the […], we added 80 µL of 100% DMSO. Optical density was measured at 540 nm. All tests were established in triplicate. […]

[4] = ABTS radical cation scavenging assay; conditions: for ABTS Assay %: at 100 µM
Description: ABTS (2,2′-azinobis-3-ethylbenzothiazoline-6-sulfonate) assay
The radical scavenging capacity of antioxidants for the ABTS radical cation was evaluated following this method: ABTS was prepared by adding 7 mM solution of ABTS at pH 7.4 (5 mM NaH2PO4, 5 mM Na2HPO4, and 154 mM NaCl) with 2.5 mM potassium persulfate. The mixture was stored at room temperature for 16 h in the dark before use and prepared […]. Once diluted with persulfate buffer, the absorbance of the mixture yielded an absorbance value of 0.70 ± 0.05 units at 734 nm. Then, 20 µL of each tested sample was mixed with fresh ABTS solution (180 µL), then the absorbance was measured 6 min after the initial mixing. Ascorbic acid was used as a standard. The capacity of free radical scavenging was expressed as a percentage of the inhibition values. The percentage of inhibition is calculated using the same expression employed in the DPPH assay.

OVCAR-3 cells = assay: Cytotoxic activity, MTT assay, OVCAR-3; type: cell-based; conditions: Homo sapiens, OVCAR-3, 72 h, read-out: IC50 OVCAR-3
Description: as §1, §2

[5] = target: T3, acetylcholinesterase (AChE); assay: biochemical
Description: The enzymatic activity was assessed via a modified colorimetric Ellman′s method. First, 50 µL of Tris-HCl buffer (pH 8), 25µL of a buffer solution of the sample (50 µg/mL), and 25 µL of an acetylcholinesterase (AChE) enzyme solution containing 2.8 U/mL were mixed. A reaction was then initiated via the addition of 125 µL of 3 mM […]. After incubation for 15 min at 25 °C, 25 µL of a solution of iodide acetylthiocholine15 mM was added to a 96-well microplate. […] Inhibition (%) was calculated in the following way: Inhibition (%) = [(A control − A sample)/A control] × 100, where (A sample) is the absorbance of the molecule containing the reaction and (A control) is the absorbance of the reaction control. Tests were carried out in triplicate.

[6] = target: T4, superoxide dismutase (SOD); assay: biochemical; conditions: read-out: Anti SOD IC50
Description: Pyrogallol auto-oxidation due to oxygen in the air can be inhibited by an enzyme that is naturally present in the body: superoxide dismutase (SOD). Furthermore, variations in the pyrogallol auto-oxidation rate in the presence of SOD were evaluated. Tests were carried out in triplicate. The objective was to find an inhibitor of the auto-oxidation of pyrogallol in the presence of a SOD enzyme solution. Samples were tested at a concentration of 50 µg/mL, followed by incubation for 4 min at 25 °C. […] The self-oxidation of pyrogallol was evaluated in the absence of the enzyme. For this, 30 µL of pyrogallol was added to 120 µL of tris buffer (in place of the SOD) (pH 8.5), then followed by the same steps of incubating a positive control (without the molecule); this was performed in the presence of 5% of DMSO to evaluate the percentage of SOD inhibition activity on the auto-oxidation of pyrogallol.

MCF7 cells = assay: Cytotoxic activity, MTT assay, MCF7; type: cell-based, human
Description: Optical density was measured at 540 nm. All tests were established in triplicate.

[7] = DPPH radical scavenging assay
Description: DPPH• (1-1-diphenyl 2-picryl hydrazyl) assay
This method is based on the spectrophotometric assay using the stable radical, DPPH•, as a reagent. First, 20 µL of each sample (4 mg/mL) was mixed with 180 µL of 0.1 mM DPPH• in methanol, in plates, after an incubation of 25 min in the dark. Absorbance was measured at 517 nm. Ascorbic acid was used as the reference compound. The radical-scavenging activities of molecules, expressed as a percentage inhibition of DPPH•, were calculated according to the following formula: Inhibition (%) = [(A control − A sample)/A control] × 100 where A is the absorbance determined at 517 nm. The absorbance of the solvent and DPPH• radical without the molecule was measured as the control.

xanthine oxidase (XOD) [8] = target: T1, xanthine oxidase (XOD); type: biochemical; conditions: at 100 µM
[9] = Homo sapiens, SK-OV-3, 72 h, read-out: IC50 SKOV-3, MTT, 72 h
[10] = read-out: IC50 SKOV-3, MTT, 72 h

T1 sequence (P47989 whole entry, species assumed): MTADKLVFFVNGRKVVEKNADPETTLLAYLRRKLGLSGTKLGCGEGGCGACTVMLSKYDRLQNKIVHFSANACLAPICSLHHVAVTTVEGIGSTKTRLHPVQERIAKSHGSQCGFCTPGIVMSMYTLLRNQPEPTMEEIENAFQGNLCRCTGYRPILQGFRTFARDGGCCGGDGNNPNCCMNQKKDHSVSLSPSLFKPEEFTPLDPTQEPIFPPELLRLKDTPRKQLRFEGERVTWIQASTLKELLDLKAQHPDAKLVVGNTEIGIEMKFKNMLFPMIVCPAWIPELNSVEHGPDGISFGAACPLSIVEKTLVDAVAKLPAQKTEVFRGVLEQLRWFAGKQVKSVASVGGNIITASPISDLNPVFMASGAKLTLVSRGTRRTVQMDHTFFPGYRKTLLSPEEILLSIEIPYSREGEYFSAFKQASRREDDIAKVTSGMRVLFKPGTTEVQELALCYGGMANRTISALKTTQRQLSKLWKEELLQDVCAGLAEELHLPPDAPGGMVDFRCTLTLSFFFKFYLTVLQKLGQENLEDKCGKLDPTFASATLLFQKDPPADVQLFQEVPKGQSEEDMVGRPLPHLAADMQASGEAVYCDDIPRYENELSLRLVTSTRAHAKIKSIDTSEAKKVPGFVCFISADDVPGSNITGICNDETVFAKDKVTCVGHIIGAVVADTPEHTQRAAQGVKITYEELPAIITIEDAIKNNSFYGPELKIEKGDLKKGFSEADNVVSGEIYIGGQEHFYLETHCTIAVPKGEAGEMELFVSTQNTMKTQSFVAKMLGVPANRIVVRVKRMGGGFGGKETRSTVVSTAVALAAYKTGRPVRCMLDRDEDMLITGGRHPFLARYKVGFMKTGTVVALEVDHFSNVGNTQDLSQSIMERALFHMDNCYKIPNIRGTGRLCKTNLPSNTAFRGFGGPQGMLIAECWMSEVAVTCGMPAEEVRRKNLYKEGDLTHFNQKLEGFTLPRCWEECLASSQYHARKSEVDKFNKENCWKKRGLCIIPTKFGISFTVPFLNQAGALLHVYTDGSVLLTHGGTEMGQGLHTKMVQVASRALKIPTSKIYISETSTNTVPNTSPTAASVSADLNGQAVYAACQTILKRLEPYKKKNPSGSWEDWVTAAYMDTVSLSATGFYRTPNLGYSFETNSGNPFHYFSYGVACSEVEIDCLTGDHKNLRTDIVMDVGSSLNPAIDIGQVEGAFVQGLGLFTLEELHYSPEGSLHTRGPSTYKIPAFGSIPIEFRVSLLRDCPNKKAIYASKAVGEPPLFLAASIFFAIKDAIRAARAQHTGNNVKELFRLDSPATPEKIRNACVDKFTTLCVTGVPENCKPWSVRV

SMILES | IC50 (SKOV-3 cells; [9]) [µM] | IC50 (xanthine oxidase (XOD) [1]) [µM] | IC50 (α-amylase) [µM] | Anti α-Amylase % (α-amylase) [%] | Anti ACHE % [2] [%] | Anti SOD % [3] [%] | IC50 (HCT116 cells) [µM] | IC50 [4] [µM] | IC50 (OVCAR-3 cells) [µM] | IC50 [5] [µM] | IC50 [6] [µM] | IC50 (MCF7 cells; Homo sapiens, MCF7, 72 h) [µM] | IC50 [7] [µM] | ABTS Assay % [4] [%] | IC50 ([5]; read-out: Anti ACHE IC50) [µM] | Anti XOD % (xanthine oxidase (XOD) [8]) [%] | IC50 (SKOV-3 cells; [10]) [µM] | IC50 (MCF7 cells; 72 h) [µM]
CC1OC(OCC2OC(Oc3c(-c4ccc(OCCO)c(OCCO)c4)oc4cc(OCCO)cc(O)c4c3=O)C(O)C(O)C2O)C(O)C(O)C1O (centres unmarked) [Molecule M6, trihydroxyethylrutin] | > 50 | > 100 | > 100 | 49.4 ± 5.1 | 33.7 ± 3.7 | 53.7 ± 2.1 | > 50 | 24.5 ± 0.1 | > 50 | > 100 | > 50 | > 50 | > 100 | – | – | – | – | –
O=c1cc(-c2cccc(O)c2)oc2c1ccc1ccccc12 [Molecule M10, 3′-hydroxy-a-naphthoflavone] | > 50 | > 50 | 2.3 ± 0.1 | 69.4 ± 1.6 | 54.7 ± 1.9 | 39.4 ± 1.9 | > 50 | > 100 | > 50 | – | > 100 | > 50 | > 100 | 11.0 ± 1.0 | > 50 | 58.8 ± 0.3 | – | –
COc1cccc(-c2cc(=O)c3c(O)cccc3o2)c1 [Molecule M11, 5-hydroxy-3′-methoxyflavone] | > 100 | > 100 | 8.3 ± 0.2 | 124.8 ± 15.3 | 52.6 ± 4.2 | 9.4 ± 3.1 | > 50 | > 100 | > 50 | – | > 100 | > 100 | > 100 | 17.7 ± 0.7 | > 50 | – | > 50 | –
COc1cc(O)c2c(=O)cc(-c3ccc(O)cc3)oc2c1 [Molecule M12, 4′,5-dihydroxy-7-methoxyflavone] | 44.7 ± 1.2 | 1.2 ± 0.1 | 9 ± 0.1 | 111.7 ± 0.8 | 51.0 ± 0.3 | 42.1 ± 5.3 | 38.5 ± 1.2 | > 100 | 47 ± 1.4 | > 50 | > 100 | > 50 | > 100 | 30.3 ± 0.6 | – | 58.2 ± 3.1 | – | –
O=c1cc(-c2cccc(O)c2)oc2cccc(O)c12 [Molecule M14, 5,3′-dihydroxyflavone] | > 100 | 2 ± 0.1 | 6.7 ± 0.9 | 109.6 ± 1.7 | 55.0 ± 1.9 | 5.7 ± 2.5 | – | > 100 | > 50 | – | > 100 | > 100 | > 100 | 16.9 ± 0.3 | > 50 | 71.3 ± 4.7 | > 50 | > 50
Cc1cccc(COc2cc(O)c3c(=O)cc(-c4ccccc4)oc3c2)c1 [Molecule M15, 5-hydroxy-7-((3-methylbenzyl)oxy)-2-phenyl-4h-chromen-4-one] | > 50 | > 100 | > 100 | 46.2 ± 4.4 | 55.3 ± 2.7 | 26.5 ± 3.3 | > 50 | > 100 | 45.6 ± 1.4 | – | > 100 | > 50 | > 100 | 25.6 ± 0.7 | > 50 | – | – | –
Cc1ccc2oc(-c3cccc(O)c3)cc(=O)c2c1 [Molecule M16, 3′-hydroxy-6-methylflavone] | 42.1 ± 1.5 | 2 ± 0.1 | > 100 | – | 59.1 ± 1.5 | 27.3 ± 3.2 | > 100 | > 50 | > 50 | – | > 100 | > 100 | > 100 | – | > 50 | 83.5 ± 3.8 | – | –
Cc1ccc(-c2cc(=O)c3cc(O)ccc3o2)cc1 [Molecule M17, 6-hydroxy-4′-methylflavone] | 43.8 ± 0.9 | 0.8 ± 0.1 | > 100 | – | 50.8 ± 4.1 | 80.9 ± 0.2 | 40.4 ± 1.2 | > 50 | > 50 | – | > 50 | > 50 | > 100 | – | > 50 | 67.7 ± 2.1 | – | –
O=C1O[C@H]([C@@H](O)CO)C(O)=C1O [Vitamin C, Ascorbic acid, reference compound] | – | – | – | – | – | – | – | 2.2 ± 0.2 | – | – | – | – | 2.3 ± 0.2 | – | – | – | – | –
